Assay results: ChEMBL document CHEMBL4665751, “Discovery of Clinical Candidate (5-(3-(4-Chlorophenoxy)prop-1-yn-1-yl)-3-hydroxypicolinoyl)glycine, an Orally Bioavailable Prolyl Hydroxylase Inhibitor for the Treatment of Anemia” (J Med Chem, 2020)

Legend:
[1] = Genotoxicity in Salmonella typhimurium TA100 at 62.5 to 1000 ug incubated for 48 to 50 hrs in presence of S9 fraction by Ames test; type: toxicity, subcellular, Salmonella enterica subsp. enterica serovar Typhimurium; conditions: dose 62.5-1000 µg, time 48-50 hrs
[2] = Genotoxicity in Salmonella typhimurium TA98 at 62.5 to 1000 ug incubated for 48 to 50 hrs in absence of S9 fraction by Ames test; type: toxicity, Salmonella enterica subsp. enterica serovar Typhimurium; conditions: in vivo; dose 62.5-1000 µg, time 48-50 hrs
[3] = Hepatotoxicity in male Sprague-Dawley rat assessed as change in albumin level at 15 to 200 mg/kg, po administered every alternate days for 2 weeks measured on day 14; type: toxicity, organism-based; conditions: in vivo, 336 h, dose 15-200 mg/kg, time 14 day
[4] = Acute toxicity in Sprague-Dawley rat assessed as change in ratio of thymus to body weight at 15 to 200 mg/kg, po administered every alternate days for 2 weeks measured on day 14; type: organism-based; conditions: in vivo, 336 h, dose 15-200 mg/kg, time 14 day
[5] = Acute toxicity in Sprague-Dawley rat assessed as change in ratio of heart to body weight at 15 to 200 mg/kg, po administered every alternate days for 2 weeks measured on day 14; type: organism-based; conditions: in vivo, 336 h, dose 15-200 mg/kg, time 14 day
[6] = Acute toxicity in Sprague-Dawley rat assessed as change in ratio of brain to body weight at 15 to 200 mg/kg, po administered every alternate days for 2 weeks measured on day 14; type: organism-based; conditions: in vivo, 336 h, dose 15-200 mg/kg, time 14 day
[7] = Acute toxicity in Sprague-Dawley rat assessed as change in ratio of adrenal gland to body weight at 15 to 200 mg/kg, po administered every alternate days for 2 weeks measured on day 14; type: organism-based; conditions: in vivo, 336 h, dose 15-200 mg/kg, time 14 day
[8] = Acute toxicity in Sprague-Dawley rat assessed as change in body weight at 15 to 200 mg/kg, po administered every alternate days for 14 days; type: organism-based; conditions: in vivo, 336 h, dose 15-200 mg/kg, time 14 day
Cytochrome P450 2C9 = Cytochrome P450 2C9 (Homo sapiens, UniProt P11712); experiment: Inhibition of CYP2C9 (unknown origin) using diclofenac as substrate preincubated for 5 mins followed by addition of NADPH measured after 20 mins by LC-MS/MS analysis; type: ADME
[9] = Half-life in human liver microsome at 1 uM preincubated for 5 mins followed by NADPH addition measured up to 120 mins by LC-MS/MS analysis; type: ADME; conditions: liver microsomes, time <=125 min
[10] = Half-life in dog liver microsome at 1 uM preincubated for 5 mins followed by NADPH addition measured up to 120 mins by LC-MS/MS analysis; type: ADME, Canis lupus familiaris; conditions: liver microsomes, time <=125 min
[11] = Half-life in mouse liver microsome at 1 uM preincubated for 5 mins followed by NADPH addition measured up to 120 mins by LC-MS/MS analysis; type: ADME; conditions: liver microsomes, time <=125 min
[12] = Intrinsic clearance in human liver microsome at 1 uM preincubated for 5 mins followed by NADPH addition measured up to 120 mins by LC-MS/MS analysis; type: ADME; conditions: microsomes, 2 h, time <=125 min
[13] = Intrinsic clearance in dog liver microsome at 1 uM preincubated for 5 mins followed by NADPH addition measured up to 120 mins by LC-MS/MS analysis; type: ADME, Canis lupus familiaris; conditions: microsomes, 2 h, time <=125 min
[14] = Intrinsic clearance in mouse liver microsome at 1 uM preincubated for 5 mins followed by NADPH addition measured up to 120 mins by LC-MS/MS analysis; type: ADME; conditions: microsomes, 2 h, time <=125 min
[15] = MRT (0 to infinity) in Beagle dog at 0.5 mg/kg, iv by LC-MS/MS analysis; type: ADME, organism-based, Canis lupus familiaris; conditions: in vivo
[16] = Clearance in Beagle dog at 0.5 mg/kg, iv by LC-MS/MS analysis; type: ADME, organism-based, Canis lupus familiaris; conditions: in vivo
[17] = Apparent volume of distribution in Beagle dog at 0.5 mg/kg, iv by LC-MS/MS analysis; type: ADME, organism-based, Canis lupus familiaris; conditions: in vivo, read-out: Vz
[18] = Half-life in Beagle dog at 0.5 mg/kg, iv by LC-MS/MS analysis; type: ADME, organism-based, Canis lupus familiaris; conditions: in vivo
[19] = Apparent volume of distribution in Beagle dog at 2 mg/kg, ig by LC-MS/MS analysis; type: ADME, organism-based, Canis lupus familiaris; conditions: in vivo, po
[20] = AUC (0 to t) in Beagle dog at 2 mg/kg, ig by LC-MS/MS analysis; type: ADME, organism-based, Canis lupus familiaris; parameters: dose 2 mg/kg; conditions: in vivo, po
[21] = Tmax in Beagle dog at 2 mg/kg, ig by LC-MS/MS analysis; type: ADME, organism-based, Canis lupus familiaris; conditions: in vivo, po
[22] = MRT (0 to infinity) in Sprague-Dawley rat at 1 mg/kg, iv by LC-MS/MS analysis; type: ADME, organism-based; conditions: in vivo
[23] = Apparent volume of distribution in Sprague-Dawley rat at 1 mg/kg, iv by LC-MS/MS analysis; type: ADME, organism-based; conditions: in vivo, read-out: Vz
[24] = Clearance in Sprague-Dawley rat at 1 mg/kg, iv by LC-MS/MS analysis; type: ADME, organism-based; conditions: in vivo
[25] = AUC (0 to infinity) in Sprague-Dawley rat at 1 mg/kg, iv by LC-MS/MS analysis; type: ADME, organism-based; parameters: time infinity, route intravenous, dose 1 mg/kg; conditions: in vivo
[26] = AUC (0 to t) in Sprague-Dawley rat at 1 mg/kg, iv by LC-MS/MS analysis; type: ADME, organism-based; parameters: dose 1 mg/kg; conditions: in vivo
[27] = AUC (0 to infinity) in Sprague-Dawley rat at 2 mg/kg, ig by LC-MS/MS analysis; type: ADME, organism-based; parameters: time infinity, route […], dose 2 mg/kg; conditions: in vivo, po
[28] = Cmax in Sprague-Dawley rat at 2 mg/kg, ig by LC-MS/MS analysis; type: ADME, organism-based; parameters: route […], dose 2 mg/kg; conditions: in vivo, po
[29] = Tmax in Sprague-Dawley rat at 2 mg/kg, ig by LC-MS/MS analysis; type: ADME, organism-based; conditions: in vivo, po
Mus musculus [30] = experiment: Induction of erythropoiesis in po dosed C57BL/6 mouse assessed as increase in red blood cell count administered thrice for 3 days measured 4 hrs post last dose; type: functional, organism-based; conditions: dose mg/kg 5-50, time 72.0 hrs
Mus musculus [31] = experiment: In vivo inhibition of PHD2 in po dosed C57BL/6 mouse assessed as upregulation of EPO plasma level administered 4 times for 3 days by ELISA; type: functional, organism-based; conditions: dose mg/kg 5-50, time 3.0 day
Egl nine homolog 1 = Egl nine homolog 1 (Homo sapiens, UniProt Q9GZT9); experiment: Inhibition of PHD2 in human Hep3B cells assessed as upregulation of EPO mRNA expression measured after 10 hrs by Trizol reagent based qRT-PCR analysis; type: cell-based; conditions: dose microM 5-50, time 10.0 hrs
MCF7 = experiment: Cytotoxicity against human MCF7 cells assessed as reduction in cell viability at 10 to 100 uM incubated for 72 hrs by MTT assay; type: cell-based; conditions: mcf7, 72 h, dose 10-100 µM
L02 = experiment: Cytotoxicity against human L02 cells assessed as reduction in cell viability at 10 to 100 uM incubated for 72 hrs by MTT assay; type: cell-based; conditions: l02, 72 h, dose 10-100 µM
Homo sapiens [32] = species: Homo sapiens; experiment: Selectivity index, ratio of IC50 for KDM6B (unknown origin) in presence of peptide substrate incubated for 30 mins by alpha screen assay to IC50 for PHD2 (unknown origin) by O-phenyl enediamine(OPD) based fluorescence assay
Homo sapiens [33] = species: Homo sapiens; experiment: Selectivity index, ratio of IC50 for KDM3A (unknown origin) in presence of peptide substrate incubated for 30 mins by alpha screen assay to IC50 for PHD2 (unknown origin) by O-phenyl enediamine(OPD) based fluorescence assay

Egl nine homolog 1, sequence (Q9GZT9 2-426 limits assumed): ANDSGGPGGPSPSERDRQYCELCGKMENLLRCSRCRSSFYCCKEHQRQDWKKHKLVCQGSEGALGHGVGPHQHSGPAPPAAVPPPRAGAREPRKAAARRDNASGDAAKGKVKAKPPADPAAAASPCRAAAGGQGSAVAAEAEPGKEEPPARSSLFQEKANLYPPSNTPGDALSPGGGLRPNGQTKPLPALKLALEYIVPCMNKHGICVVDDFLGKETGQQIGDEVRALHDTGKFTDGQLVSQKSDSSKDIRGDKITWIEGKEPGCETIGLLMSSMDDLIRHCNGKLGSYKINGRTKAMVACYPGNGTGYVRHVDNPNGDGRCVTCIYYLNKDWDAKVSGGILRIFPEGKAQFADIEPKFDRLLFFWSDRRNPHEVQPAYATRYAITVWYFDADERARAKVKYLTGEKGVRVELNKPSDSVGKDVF
Cytochrome P450 2C9, sequence (P11712 whole entry): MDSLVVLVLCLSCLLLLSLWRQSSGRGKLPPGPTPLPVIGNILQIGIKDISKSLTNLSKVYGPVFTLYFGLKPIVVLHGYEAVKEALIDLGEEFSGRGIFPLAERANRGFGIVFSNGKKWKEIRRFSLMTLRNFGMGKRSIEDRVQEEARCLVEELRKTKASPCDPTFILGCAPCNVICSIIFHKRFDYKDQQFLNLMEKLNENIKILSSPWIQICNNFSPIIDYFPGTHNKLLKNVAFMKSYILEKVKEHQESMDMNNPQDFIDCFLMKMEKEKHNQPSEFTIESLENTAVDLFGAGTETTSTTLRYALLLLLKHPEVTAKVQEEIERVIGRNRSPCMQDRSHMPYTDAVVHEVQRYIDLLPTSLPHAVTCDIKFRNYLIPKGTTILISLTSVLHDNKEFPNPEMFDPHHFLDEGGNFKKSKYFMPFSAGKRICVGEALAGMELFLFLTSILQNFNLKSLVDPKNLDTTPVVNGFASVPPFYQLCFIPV

## O=C(O)CNC(=O)c1ncc(C#CCOc2ccc(Cl)cc2)cc1O [DDO-3055]
[1]
  Activity: Non-Toxic
[2]
  Activity: Non-Toxic
[3]
  Activity: Non-Toxic
[4]
  Activity: Non-Toxic
[5]
  Activity: Non-Toxic
[6]
  Activity: Non-Toxic
[7]
  Activity: Non-Toxic
[8]
  Activity: Non-Toxic
Cytochrome P450 2C9
  IC50: > 30 µM
[9]
  half-life at 1 µM: > 2.32 h
[10]
  half-life at 1 µM: > 2.32 h
[11]
  half-life at 1 µM: > 2.32 h
[12]
  CLH: < 0.01 mL/min/kg
[13]
  CLH: < 0.01 mL/min/kg
[14]
  CLH: < 0.01 mL/min/kg
[15]
  MRT inf: 2.27 h
[16]
  clearance: 13.2 mL/min/kg
[17]
  Vd: 3.34 L/kg
[18]
  half-life: 2.91 h
[19]
  Vz: 8.417 L/kg
[20]
  AUC(0-t): 1360 ng·h/mL
[21]
  Tmax: 0.67 h
[22]
  MRT inf: 3.44 h
[23]
  Vd: 2.52 L/kg
[24]
  clearance: 3.44 mL/min/kg
[25]
  AUC(0-inf): 4860 ng·h/mL
[26]
  AUC(0-t): 4710 ng·h/mL
[27]
  AUC(0-inf): 5420 ng·h/mL
[28]
  Cmax: 1030 ng/mL
[29]
  Tmax: 0.63 h
Mus musculus [30]
  Activity: Dose-dependent effect
Mus musculus [31]
  inhibition: Dose-dependent effect
Egl nine homolog 1
  inhibition: Dose-dependent effect
MCF7
  Activity: Non-Toxic
L02
  Activity: Non-Toxic
Homo sapiens [32]
  Ratio IC50: > 156
Homo sapiens [33]
  Ratio IC50: > 1560
